The target of assay [1] is T1, MAPK1(ERK2) enzyme (Homo sapiens, UniProt P28482).
T1 construct: purchased Invitrogen PV3313
The assay is described as follows: Z-Lyte Kinase Assay of ERK2. It is filed as biochemical. As to conditions: read-out: Example 18 IC50. The method, boiled down: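 FRET-based Z-LYTE assay using ERK2 kinase with Ser/Thr3 peptide; compound tested at 0.00046–1 μM final in 2% DMSO. Kinase reaction ran 1 h at 25-30° C, followed by 1 h development. The coumarin/fluorescein emission ratio (445/520 nm) gave % phosphorylation, and IC50 was fitted from inhibition relative to uninhibited control.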

The subject of assay [2] is p-RSK (Thr359) in colo205 cells. Kind of assay: p-RSK (Thr359) Acumen Assay in Colo205. The format is cell-based. The following applies: Homo sapiens, COLO 205, 1 hour compound incubation, read-out: Example 19 IC50. An outline of the steps: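 Colo205 cells (4000/well, seeded overnight in 10% FBS) were exposed 1 hour at 37° C to compound added from a 3–0.001 μM dilution series in 5% DMSO. Cells were then fixed, permeabilised and immunostained for p-RSK Thr359, with PI counterstain. Acumen cytometry gave the percentage of positive cells, normalised to untreated wells and 3 uM GDC0994 wells, for the IC50 fit.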

pIC50: −log10 of the molar value.

T1 sequence (P28482 whole entry): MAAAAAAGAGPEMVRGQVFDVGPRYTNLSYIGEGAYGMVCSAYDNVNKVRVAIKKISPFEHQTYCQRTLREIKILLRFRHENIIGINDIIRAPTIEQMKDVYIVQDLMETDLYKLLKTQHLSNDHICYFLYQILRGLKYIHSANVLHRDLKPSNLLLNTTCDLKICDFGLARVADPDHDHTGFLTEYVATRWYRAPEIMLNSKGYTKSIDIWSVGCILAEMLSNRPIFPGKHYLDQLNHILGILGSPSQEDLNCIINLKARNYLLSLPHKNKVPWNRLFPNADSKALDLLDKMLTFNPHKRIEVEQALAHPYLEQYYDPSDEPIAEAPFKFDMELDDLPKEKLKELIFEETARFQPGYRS

With `Cc1cnc(Nc2ccnn2C)nc1-c1cc2n(c1)C[C@H](CF)n1c-2nnc1C(F)(F)c1ccccc1Cl` [Compound 176], the pIC50 in assay [1] was 8.00 to 8.30; in assay [2] it was no less than 7.00.

Consider `COC[C@H]1Cn2cc(-c3cc(Nc4ccnn4C)ncc3C)cc2-c2nnc(C(F)(F)c3ccccc3Cl)n21` [Compound 201], for which the results for the pIC50 in assay [1] and in assay [2] were less than 8.00 and no less than 7.00, respectively.

Consider `Cc1cnc(Nc2ccnn2C)nc1-c1cc2n(c1)C[C@@H](C)n1c-2nnc1C1(C(F)(F)F)CCC1` [Compound 239], for which the pIC50 in assay [1] is no less than 8.30; in assay [2] it was less than 7.00.

In the case of `Cc1cnc(Nc2c(F)cnn2C)nc1-c1cc2n(c1)C[C@H](C)n1c-2nnc1C(F)(F)c1ccccc1F` [Compound 290], the pIC50 in assay [1] is 8.00 to 8.30; in assay [2] it was less than 7.00.

Turning to `Cn1nccc1Nc1cc(-c2cc3n(c2)CCCn2c(COC(F)(F)F)nnc2-3)c(Cl)cn1` [Compound 11], the pIC50 is no less than 8.30 in assay [1] and no less than 7.00 in assay [2].

For `Cn1nccc1Nc1cc(-c2cc3n(c2)CCCn2c-3nnc2C2(C(F)(F)F)CCCC2)c(Cl)cn1` [Compound 31], the negative logarithm of the IC50 (pIC50) is 8.00 to 8.30 in assay [1] and no less than 7.00 in assay [2].

`Cc1cnc(Nc2ccnn2C)cc1-c1cc2n(c1)C[C@H](CF)n1c-2nnc1C(F)(F)c1cccc(F)c1` [Compound 127]: the figures for the pIC50 in assay [1] and in assay [2] were 8.00 to 8.30 and no less than 7.00, respectively.

As for `Cn1nccc1Nc1cc(-c2cc3n(c2)CCCn2c-3nnc2C2(C(F)(F)F)CCC2)c(C(F)(F)F)cn1` [Compound 271], the pIC50 was 8.00 to 8.30 in assay [1] and no less than 7.00 in assay [2].

Turning to `Cc1cnc(Nc2ccnn2C)cc1-c1cc2n(c1)C[C@H](C)n1c-2nnc1C(F)(F)c1ccccc1F` [Compound 83], the pIC50 in assay [1] is less than 8.00; in assay [2], no less than 7.00.

Take `Cc1cnc(Nc2ncnn2C)cc1-c1cc2n(c1)C[C@H](CF)n1c-2nnc1C(F)(F)c1ccccc1Cl` [Compound 173]: the results for the pIC50 in assay [1] and in assay [2] were 8.00 to 8.30 and less than 7.00, respectively.

As to `Cc1cnc(Nc2ccnn2C)cc1-c1cc2n(c1)C[C@H](CF)n1c-2nnc1C(F)(F)n1nccc1Cl` [Compound 151], the pIC50 in assay [1] is no less than 8.30; in assay [2], no less than 7.00.

As to `Cn1nccc1Nc1nccc(-c2cc3n(c2)C[C@H](C(F)(F)F)n2c-3nnc2C(F)(F)c2ccccc2F)n1` [Compound 273], the pIC50 in assay [1] is 8.00 to 8.30; in assay [2] it was less than 7.00.

For `Cn1nccc1Nc1ncc(F)c(-c2cc3n(c2)C[C@H](CF)n2c-3nnc2C(F)(F)c2ccccc2F)n1` [Compound 148], the figures for the pIC50 in assay [1] and in assay [2] were 8.00 to 8.30 and no less than 7.00, respectively.

Take `Cn1nccc1Nc1nccc(-c2cc3n(c2)C[C@H](C(F)F)n2c-3nnc2C(F)(F)c2ccccc2F)n1` [Compound 149]: the pIC50 was no less than 8.30 in assay [1] and no less than 7.00 in assay [2].

`Cn1nccc1Nc1cc(-c2cc3n(c2)C[C@H](CF)n2c-3nnc2C(F)(F)c2ccnn2C)c(Cl)cn1` [Compound 154]: the negative-log IC50 (pIC50) in assay [1] was no less than 8.30; in assay [2], no less than 7.00.

With `C[C@H]1Cn2cc(-c3ccnc(Nc4ccnn4C)n3)cc2-c2nnc(C(F)(F)c3ccccc3F)n21` [Compound 71], the pIC50 in assay [1] was no less than 8.30; in assay [2], no less than 7.00.

Consider `Cn1nccc1Nc1cc(-c2cc3n(c2)CC2(CCC2)Cn2c-3nnc2C(F)(F)C(F)F)c(Cl)cn1` [Compound 119], for which the pIC50 was 8.00 to 8.30 in assay [1] and less than 7.00 in assay [2].

As for `Cn1nccc1Nc1cc(-c2cc3n(c2)C[C@H](CF)n2c-3nnc2C(F)(F)c2ccccc2Cl)c(Cl)cn1` [Compound 206], the negative-log IC50 (pIC50) in assay [1] is less than 8.00; in assay [2], no less than 7.00.

With `Cc1cnc(Nc2ccnn2C)cc1-c1cc2n(c1)CC(F)(F)Cn1c-2nnc1C1(C(F)(F)F)CC1` [Compound 87], the pIC50 in assay [1] was no less than 8.30; in assay [2], no less than 7.00.

Take `Cn1nccc1Nc1nccc(-c2cc3n(c2)CCCn2c(CCc4ccccc4F)nnc2-3)n1` [Compound 1, 4-(3-(2-fluorophenethyl)-6,7-dihydro-5H-pyrrolo[1,2-a][1,2,4]triazolo[3,4-c][1,4]diazepin-10-yl)-N-(1-methyl-1H-pyrazol-5-yl)pyrimidin-2-amine]: the values for the pIC50 in assay [1] and in assay [2] were no less than 8.30 and less than 7.00, respectively.

With `CC1CCn2c(nnc2C2(C(F)(F)F)CCC2)-c2cc(-c3cc(Nc4ccnn4C)ncc3Cl)cn21` (stereo not drawn) [Compound 52], the negative logarithm of the IC50 (pIC50) is no less than 8.30 in assay [1] and no less than 7.00 in assay [2].

As for `Cn1nccc1Nc1cc(-c2cc3n(c2)CC2(CC2)n2c-3nnc2C(F)(F)C(F)F)c(F)cn1` [Compound 235], the pIC50 in assay [1] is 8.00 to 8.30; in assay [2], no less than 7.00.

As to `Cn1nccc1Nc1ncnc(-c2cc3n(c2)C[C@H](CF)n2c-3nnc2C(F)(F)c2ccccc2Cl)n1` [Compound 144], the pIC50 in assay [1] was no less than 8.30; in assay [2], no less than 7.00.

On to `Cn1nccc1Nc1ncc(F)c(-c2cc3n(c2)C[C@H](CF)n2c-3nnc2C(F)(F)n2cc(Cl)cn2)n1` [Compound 166], for which the pIC50 in assay [1] is no less than 8.30; in assay [2], no less than 7.00.

For `Cn1nccc1Nc1cc(-c2cc3n(c2)C[C@@H](F)Cn2c-3nnc2C2(C(F)(F)F)CCC2)c(Cl)cn1` [Compound 122], the pIC50 in assay [1] is no less than 8.30; in assay [2] it was no less than 7.00.

For the molecule `Cn1nccc1Nc1cc(-c2cc3n(c2)CCCn2c-3nnc2[C@](C)(O)C(F)(F)F)c(Cl)cn1` [Compound 26], the values for the pIC50 in assay [1] and in assay [2] were no less than 8.30 and no less than 7.00, respectively.

As to `Cc1cnc(Nc2ccnn2C)cc1-c1cc2n(c1)C[C@H](CF)n1c-2nnc1C(F)(F)C(F)(F)F` [Compound 76], the pIC50 was no less than 8.30 in assay [1] and less than 7.00 in assay [2].

As to `Cc1cnc(Nc2ccnn2C)cc1-c1cc2n(c1)C[C@H](CF)n1c-2nnc1C(F)(F)c1ncccc1Cl` [Compound 174], the figures for the pIC50 in assay [1] and in assay [2] were no less than 8.30 and no less than 7.00, respectively.

Turning to `C[C@H]1Cn2c(nnc2C2(C(F)(F)F)CCC2)-c2cc(-c3cc(Nc4ccnn4C)ncc3Cl)cn21` [Compound 50], the values for the pIC50 in assay [1] and in assay [2] were no less than 8.30 and less than 7.00, respectively.

Regarding `Cn1nccc1Nc1cc(-c2cc3n(c2)C[C@H](CF)n2c-3nnc2C(F)(F)c2cccc(F)c2)c(Cl)cn1` [Compound 191], the results for the negative-log IC50 (pIC50) in assay [1] and in assay [2] were 8.00 to 8.30 and less than 7.00, respectively.

On to `Cc1cnc(Nc2ccnn2C)cc1-c1cc2n(c1)C[C@H](C(F)F)n1c-2nnc1C(F)(F)n1cc(Cl)cn1` [Compound 198], for which the pIC50 is no less than 8.30 in assay [1] and no less than 7.00 in assay [2].

With `Cc1cnc(Nc2ccnn2C)cc1-c1cc2n(c1)CC(F)(F)Cn1c-2nnc1C1(C(F)(F)F)CCC1` [Compound 117], the values for the pIC50 in assay [1] and in assay [2] were no less than 8.30 and no less than 7.00, respectively.

`Cn1nccc1Nc1ncc(Cl)c(-c2cc3n(c2)CCCn2c(COC4(C(F)(F)F)CCC4)nnc2-3)n1` [Compound 213]: the pIC50 in assay [1] was no less than 8.30; in assay [2], no less than 7.00.

`Cc1cnc(Nc2ccnn2C(C)C)nc1-c1cc2n(c1)C[C@H](C)n1c-2nnc1C(F)(F)c1ccccc1F` [Compound 292]: the pIC50 was less than 8.00 in assay [1] and less than 7.00 in assay [2].

As to `Cc1cc(Nc2ncc(C)c(-c3cc4n(c3)C[C@H](C)n3c-4nnc3C(F)(F)c3ccccc3F)n2)n(C)n1` [Compound 288], the pIC50 in assay [1] was less than 8.00; in assay [2] it was no less than 7.00.

`Cn1nccc1Nc1cc(-c2cc3n(c2)CCCn2c-3nnc2C2(C#N)CCC2)c(Cl)cn1` [Compound 4]: the pIC50 in assay [1] is no less than 8.30; in assay [2], less than 7.00.
